Measurements published in publication PMC11487561 (ACS Chemical Neuroscience, 2024).

Key:
Estrogen ERα = molecular target: T1, Estrogen ERα (Homo sapiens, UniProt P03372); assay: Lead Profiling Screen – Eurofins Panlabs; format: binding; conditions: read-out: % inh at 10 μM
T1 construct: Eurofins Panlabs (contract screen)

Neuropeptide Y Y1 = Neuropeptide Y Y1 (Homo sapiens, UniProt P25929); assay: Lead Profiling Screen – Eurofins Panlabs; format: binding; conditions: read-out: % inh at 10 μM
human M2 = human M2 (Homo sapiens, UniProt P08172); assay: Calcium mobilization assay, muscarinic selectivity; format: cell-based
Histamine H2 = Histamine H2 (Homo sapiens, UniProt P25021); assay: Lead Profiling Screen – Eurofins Panlabs; format: binding; conditions: read-out: % inh at 10 μM
Dopamine D1 = molecular target: T2, Dopamine D1 (Homo sapiens, UniProt P21728); assay: Lead Profiling Screen – Eurofins Panlabs; format: binding; conditions: read-out: % inh at 10 μM
T2 construct: Eurofins Panlabs (contract screen)

CYP 2C9 = molecular target: T3, CYP 2C9 (Homo sapiens, UniProt P11712); assay: P450 inhibition in pooled human liver microsomes; format: in vitro ADME; conditions: pooled HLM, NADPH, CYP-specific probe substrates
T3 construct: from tissue; host or cells: pooled human liver microsomes (according to the earlier reading)

[1] = system: Calcium Channel L-Type, Dihydropyridine; assay: Lead Profiling Screen – Eurofins Panlabs; format: binding, rat
[2] = Intrinsic clearance in human liver microsomes; format: in vitro ADME
Protocol: Intrinsic Clearance in Rat and Human Liver Microsomes
The in vitro intrinsic clearance (CL int) was investigated in commercially obtained hepatic microsomes from rat and human donors using the substrate depletion (i.e., loss-of-parent vs. time, or t 1/2 method) approach with analyte detection via liquid chromatography-tandem mass spectrometry (LC-MS/MS). For each species, mean %parent remaining values at each time point were calculated from replicates raw data (analyte:IS peak area ratios) and used to determine in vitro t 1/2 and CLint.
Experiments were carried out using a robot-assisted (TECAN model Evo 200). Compound was incubated (1 µM final concentration) in buffer (100 mM potassium phosphate pH 7.4 with 3 mM MgCl2) containing hepatic microsomes (0.5 mg/mL final concentration) from multiple species, discretely, at 37 °C under constant orbital shaking. After 5 minutes (pre-incubation), reactions were initiated by addition of nicotinamide adenine dinucleotide phosphate (NADPH, 1 mM final concentration). At selected time intervals (0, 3, 7, 15, 25, and 45 minutes) post-addition of NADPH, aliquots (50 µL) were taken and placed into a 96-shallow-well plate containing ice cold acetonitrile (150 µL) with carbamazepine (IS, 50 nM). The plates were then centrifuged (3000 rcf at 4 °C) for 10 minutes. The supernatants were transferred to a new 96-shallow-well daughter plate and diluted (1:1 v/v) with water (Milli-Q filtered). The plates were then sealed in preparation for LC-MS/MS analysis (see below).
Raw LC-MS/MS peak area data generated from the assay samples were used to construct natural log-transformed %parent remaining vs. time plots (using t = 0 minute post-NADPH addition sample data as starting point set to 100%). In vitro compound half-life (t 1/2) values were obtained using the following […]
k is the slope from linear regression analysis of the natural log-transformed data (using means from Where all replicates at each time point). Resulting t 1/2 values were then used to calculate hepatic CLint values according to the following equation and with the use of species-specific scale-up factors for liver weight (grams) per total body weight (kg): […]
CLint = in vitro t1/2 x 0.5 mg microsomes x 1 gram liver x kg body wt aScale-up factors used are 45 (rat) and 20 (human).2
Predicted hepatic clearance (CLhep) was calculated using the following equation: […]
Qh represents hepatic blood flow (mL/min/kg): 21 for human, 70 for rat, and 90 for mouse.
Prepared samples were injected (10 µL each) onto an AB Sciex Triple Quad 4500 mass spectrometer system with an Agilent 1260 Infinity II pump and autosampler. Mass spectrometer conditions are described in Table S1. Quantitation of compounds was performed via AB Sciex Multiquant software using the raw analyte:IS peak area ratios. The typical detection range was 0.5 ng/mL to ≥ 5,000 ng/mL utilizing a quadratic equation regression with 1/x2 weighting. […]
Table S1. LC-MS/MS Conditions*
Mobile phase A 0.5% Formic Acid in Water
Mobile phase B 0.5% Formic Acid in Acetonitrile
Gradient Time % Mobile Phase B

Cannabinoid CB1 = molecular target: T4, Cannabinoid CB1 (Homo sapiens, UniProt P21554); assay: Lead Profiling Screen – Eurofins Panlabs; format: binding; conditions: read-out: % inh at 10 μM
T4 construct: Eurofins Panlabs (contract screen)

[3] = MDCK-MDR1 permeability assay; format: in vitro ADME; conditions: dog
Bradykinin B2 = molecular target: T5, Bradykinin B2 (Homo sapiens, UniProt P30411); assay: Lead Profiling Screen – Eurofins Panlabs; format: binding; conditions: read-out: % inh at 10 μM
T5 construct: Eurofins Panlabs (contract screen)

Adenosine A1 = molecular target: T6, Adenosine A1 (Homo sapiens, UniProt P30542); assay: Lead Profiling Screen – Eurofins Panlabs; format: binding; conditions: read-out: % inh at 10 μM
T6 construct: Eurofins Panlabs

Muscarinic M1 = Muscarinic M1 (Homo sapiens, UniProt P11229); assay: Lead Profiling Screen – Eurofins Panlabs; format: binding; conditions: read-out: % inh at 10 μM
Opiate μ (OP3, MOP) = Opiate μ (OP3, MOP) (Homo sapiens, UniProt P35372); assay: Lead Profiling Screen – Eurofins Panlabs; format: binding; conditions: read-out: % inh at 10 μM
Neuropeptide Y Y2 = Neuropeptide Y Y2 (Homo sapiens, UniProt P49146); assay: Lead Profiling Screen – Eurofins Panlabs; format: binding; conditions: read-out: % inh at 10 μM
Opiate κ (OP2, KOP) = Opiate κ (OP2, KOP) (Homo sapiens, UniProt P41145); assay: Lead Profiling Screen – Eurofins Panlabs; format: binding; conditions: read-out: % inh at 10 μM
Opiate δ1 (OP1, DOP) = Opiate δ1 (OP1, DOP) (Homo sapiens, UniProt P41143); assay: Lead Profiling Screen – Eurofins Panlabs; format: binding; conditions: read-out: % inh at 10 μM
[4] = system: Glutamate, NMDA, Phencyclidine; assay: Lead Profiling Screen – Eurofins Panlabs; format: binding, rat
Dopamine D2S = molecular target: T7, Dopamine D2S (Homo sapiens, UniProt P14416); assay: Lead Profiling Screen – Eurofins Panlabs; format: binding; conditions: read-out: % inh at 10 μM
T7 construct: Eurofins Panlabs (contract screen)

[5] = molecular target: Serotonin (5-Hydroxytryptamine) 5-HT2B (Homo sapiens, UniProt P41595); assay: Lead Profiling Screen – Eurofins Panlabs; format: binding; conditions: read-out: % inh at 10 μM
Adrenergic β2 = molecular target: T8, Adrenergic β2 (Homo sapiens, UniProt P07550); assay: Lead Profiling Screen – Eurofins Panlabs; format: binding; conditions: read-out: % inh at 10 μM
T8 construct: Eurofins Panlabs (contract screen)

[6] = molecular target: Platelet Activating Factor (PAF) (Homo sapiens, UniProt P25105); assay: Lead Profiling Screen – Eurofins Panlabs; format: binding; conditions: read-out: % inh at 10 μM
[7] = molecular target: Serotonin (5-Hydroxytryptamine) 5-HT3 (Homo sapiens, UniProt P46098); assay: Lead Profiling Screen – Eurofins Panlabs; format: binding; conditions: read-out: % inh at 10 μM
Adrenergic α1B = molecular target: T9, Adrenergic α1B (Rattus norvegicus, UniProt P15823); assay: Lead Profiling Screen – Eurofins Panlabs; format: binding; conditions: read-out: % inh at 10 μM
T9 construct: Eurofins Panlabs (contract screen)

hERG potassium channel = hERG potassium channel (Homo sapiens, UniProt Q12809); assay: Lead Profiling Screen – Eurofins Panlabs; format: binding; conditions: read-out: % inh at 10 μM
Sequence of hERG potassium channel (Q12809 whole entry): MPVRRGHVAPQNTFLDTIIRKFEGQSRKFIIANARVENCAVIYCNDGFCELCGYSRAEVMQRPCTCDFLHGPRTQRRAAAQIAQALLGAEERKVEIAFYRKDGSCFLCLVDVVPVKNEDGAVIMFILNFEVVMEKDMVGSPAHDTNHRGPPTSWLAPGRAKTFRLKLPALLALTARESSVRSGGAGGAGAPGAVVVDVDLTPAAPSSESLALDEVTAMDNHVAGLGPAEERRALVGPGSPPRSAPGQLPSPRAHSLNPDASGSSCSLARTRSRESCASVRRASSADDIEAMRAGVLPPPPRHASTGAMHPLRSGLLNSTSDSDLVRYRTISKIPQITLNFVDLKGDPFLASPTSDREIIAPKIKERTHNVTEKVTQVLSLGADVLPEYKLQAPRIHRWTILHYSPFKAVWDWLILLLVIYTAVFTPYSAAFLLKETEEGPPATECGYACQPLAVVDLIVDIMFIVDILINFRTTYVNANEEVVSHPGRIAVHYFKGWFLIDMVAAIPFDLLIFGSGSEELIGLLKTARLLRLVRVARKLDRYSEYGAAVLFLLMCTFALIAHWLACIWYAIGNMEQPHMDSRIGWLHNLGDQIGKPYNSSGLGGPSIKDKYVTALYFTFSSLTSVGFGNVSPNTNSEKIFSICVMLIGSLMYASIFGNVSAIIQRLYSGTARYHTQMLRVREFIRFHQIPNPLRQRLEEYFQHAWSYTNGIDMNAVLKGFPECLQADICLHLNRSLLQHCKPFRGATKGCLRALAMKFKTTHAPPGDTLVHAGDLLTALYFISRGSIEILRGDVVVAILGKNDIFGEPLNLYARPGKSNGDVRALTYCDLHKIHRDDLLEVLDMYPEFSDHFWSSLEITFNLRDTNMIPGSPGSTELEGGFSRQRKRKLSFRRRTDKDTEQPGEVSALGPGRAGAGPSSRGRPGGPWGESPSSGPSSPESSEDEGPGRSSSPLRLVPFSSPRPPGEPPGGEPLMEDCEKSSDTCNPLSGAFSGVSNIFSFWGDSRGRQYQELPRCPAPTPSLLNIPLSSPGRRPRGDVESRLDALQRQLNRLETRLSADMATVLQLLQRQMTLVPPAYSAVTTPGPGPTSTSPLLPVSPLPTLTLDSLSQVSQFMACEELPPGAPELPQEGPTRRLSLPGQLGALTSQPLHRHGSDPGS

Sequence of human M2 (P08172 whole entry): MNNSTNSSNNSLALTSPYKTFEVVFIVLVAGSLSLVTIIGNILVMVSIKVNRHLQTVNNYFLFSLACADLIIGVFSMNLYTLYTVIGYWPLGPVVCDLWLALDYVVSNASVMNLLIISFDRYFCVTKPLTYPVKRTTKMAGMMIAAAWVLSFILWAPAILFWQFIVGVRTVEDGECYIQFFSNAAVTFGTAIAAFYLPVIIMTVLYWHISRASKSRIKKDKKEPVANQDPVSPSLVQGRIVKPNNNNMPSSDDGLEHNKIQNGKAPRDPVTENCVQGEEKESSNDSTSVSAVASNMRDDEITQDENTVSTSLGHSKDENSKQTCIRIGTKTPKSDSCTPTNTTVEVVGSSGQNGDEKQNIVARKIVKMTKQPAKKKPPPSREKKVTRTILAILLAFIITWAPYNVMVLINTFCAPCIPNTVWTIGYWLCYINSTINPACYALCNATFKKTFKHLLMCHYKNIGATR
T8 sequence (P07550 whole entry): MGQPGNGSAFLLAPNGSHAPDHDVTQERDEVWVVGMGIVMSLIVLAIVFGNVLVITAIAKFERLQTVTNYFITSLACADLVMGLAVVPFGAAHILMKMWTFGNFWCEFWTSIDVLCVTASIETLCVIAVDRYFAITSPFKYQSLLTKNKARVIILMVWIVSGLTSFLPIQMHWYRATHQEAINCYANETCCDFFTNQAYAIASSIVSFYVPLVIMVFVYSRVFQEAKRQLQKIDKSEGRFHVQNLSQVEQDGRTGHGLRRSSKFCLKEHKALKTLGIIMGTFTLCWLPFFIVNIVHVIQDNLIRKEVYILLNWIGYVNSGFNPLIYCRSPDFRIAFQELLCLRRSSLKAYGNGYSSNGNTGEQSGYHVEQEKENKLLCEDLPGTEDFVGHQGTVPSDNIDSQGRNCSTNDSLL
T9 sequence (P15823 whole entry): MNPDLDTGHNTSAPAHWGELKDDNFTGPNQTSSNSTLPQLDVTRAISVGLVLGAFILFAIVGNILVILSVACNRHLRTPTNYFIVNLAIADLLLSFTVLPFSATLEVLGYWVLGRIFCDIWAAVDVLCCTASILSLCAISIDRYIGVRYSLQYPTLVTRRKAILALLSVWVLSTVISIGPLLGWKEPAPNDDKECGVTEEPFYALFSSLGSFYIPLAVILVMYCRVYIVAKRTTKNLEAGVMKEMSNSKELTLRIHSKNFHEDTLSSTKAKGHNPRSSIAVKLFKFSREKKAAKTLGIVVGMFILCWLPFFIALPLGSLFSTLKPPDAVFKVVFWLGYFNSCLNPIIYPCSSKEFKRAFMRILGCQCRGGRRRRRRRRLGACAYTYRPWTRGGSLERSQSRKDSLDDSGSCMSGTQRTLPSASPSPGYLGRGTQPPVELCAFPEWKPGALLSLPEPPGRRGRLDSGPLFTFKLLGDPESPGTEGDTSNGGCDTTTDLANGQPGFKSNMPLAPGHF
Sequence of Opiate μ (OP3, MOP) (P35372 whole entry): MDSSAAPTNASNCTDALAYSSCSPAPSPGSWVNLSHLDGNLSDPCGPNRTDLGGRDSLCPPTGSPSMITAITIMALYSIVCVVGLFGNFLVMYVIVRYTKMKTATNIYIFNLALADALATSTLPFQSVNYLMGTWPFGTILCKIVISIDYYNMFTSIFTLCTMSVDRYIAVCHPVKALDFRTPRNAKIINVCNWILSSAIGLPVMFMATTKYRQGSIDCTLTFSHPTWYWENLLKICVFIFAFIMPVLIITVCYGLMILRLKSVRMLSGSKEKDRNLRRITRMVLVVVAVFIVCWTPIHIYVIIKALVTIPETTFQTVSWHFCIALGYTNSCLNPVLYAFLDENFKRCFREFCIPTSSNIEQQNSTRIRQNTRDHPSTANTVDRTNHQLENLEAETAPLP
T6 sequence (P30542 whole entry): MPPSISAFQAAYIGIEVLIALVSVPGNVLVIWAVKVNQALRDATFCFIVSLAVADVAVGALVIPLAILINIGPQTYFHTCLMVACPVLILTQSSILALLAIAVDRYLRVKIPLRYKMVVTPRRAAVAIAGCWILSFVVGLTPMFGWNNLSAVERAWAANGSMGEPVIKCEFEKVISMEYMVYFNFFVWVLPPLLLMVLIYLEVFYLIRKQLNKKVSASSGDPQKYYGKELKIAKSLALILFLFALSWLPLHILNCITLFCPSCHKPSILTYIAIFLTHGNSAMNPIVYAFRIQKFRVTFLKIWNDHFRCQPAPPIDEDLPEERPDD
Sequence of Histamine H2 (P25021 whole entry): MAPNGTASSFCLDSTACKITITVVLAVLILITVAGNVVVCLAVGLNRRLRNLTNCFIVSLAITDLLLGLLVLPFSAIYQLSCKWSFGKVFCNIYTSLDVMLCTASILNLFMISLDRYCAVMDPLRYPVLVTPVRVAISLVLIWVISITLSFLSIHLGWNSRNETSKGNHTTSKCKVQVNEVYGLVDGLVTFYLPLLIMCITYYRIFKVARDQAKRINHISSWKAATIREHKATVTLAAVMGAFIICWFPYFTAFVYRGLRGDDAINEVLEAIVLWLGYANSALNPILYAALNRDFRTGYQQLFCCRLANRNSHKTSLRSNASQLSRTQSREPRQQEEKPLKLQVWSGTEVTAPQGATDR
T4 sequence (P21554 whole entry): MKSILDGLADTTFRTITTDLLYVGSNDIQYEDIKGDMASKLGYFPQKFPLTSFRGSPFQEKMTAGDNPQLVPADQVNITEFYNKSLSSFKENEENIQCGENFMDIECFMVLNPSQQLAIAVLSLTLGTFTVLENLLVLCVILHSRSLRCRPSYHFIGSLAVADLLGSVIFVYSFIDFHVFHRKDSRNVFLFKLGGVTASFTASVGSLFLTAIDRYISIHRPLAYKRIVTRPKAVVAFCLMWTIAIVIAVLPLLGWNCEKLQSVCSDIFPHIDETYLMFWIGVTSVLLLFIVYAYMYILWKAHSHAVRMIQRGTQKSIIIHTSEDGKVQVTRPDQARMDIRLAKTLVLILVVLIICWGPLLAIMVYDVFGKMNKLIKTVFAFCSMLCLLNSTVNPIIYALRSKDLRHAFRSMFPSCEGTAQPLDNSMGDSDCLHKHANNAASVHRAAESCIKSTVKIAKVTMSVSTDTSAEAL
T3 sequence (P11712 whole entry): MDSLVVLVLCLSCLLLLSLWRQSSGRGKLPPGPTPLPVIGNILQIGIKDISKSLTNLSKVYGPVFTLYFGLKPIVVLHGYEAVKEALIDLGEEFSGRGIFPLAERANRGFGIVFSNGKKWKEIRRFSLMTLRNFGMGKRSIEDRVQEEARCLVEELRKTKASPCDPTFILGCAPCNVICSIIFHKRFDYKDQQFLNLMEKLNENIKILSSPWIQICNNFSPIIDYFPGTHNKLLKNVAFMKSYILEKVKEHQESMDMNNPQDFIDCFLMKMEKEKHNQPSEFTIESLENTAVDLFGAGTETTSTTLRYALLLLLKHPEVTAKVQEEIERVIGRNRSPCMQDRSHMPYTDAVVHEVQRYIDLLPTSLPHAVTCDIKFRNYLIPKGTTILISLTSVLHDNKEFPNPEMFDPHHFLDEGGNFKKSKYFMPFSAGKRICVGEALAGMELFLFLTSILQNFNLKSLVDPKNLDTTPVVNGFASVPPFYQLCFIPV
Sequence of Neuropeptide Y Y1 (P25929 whole entry): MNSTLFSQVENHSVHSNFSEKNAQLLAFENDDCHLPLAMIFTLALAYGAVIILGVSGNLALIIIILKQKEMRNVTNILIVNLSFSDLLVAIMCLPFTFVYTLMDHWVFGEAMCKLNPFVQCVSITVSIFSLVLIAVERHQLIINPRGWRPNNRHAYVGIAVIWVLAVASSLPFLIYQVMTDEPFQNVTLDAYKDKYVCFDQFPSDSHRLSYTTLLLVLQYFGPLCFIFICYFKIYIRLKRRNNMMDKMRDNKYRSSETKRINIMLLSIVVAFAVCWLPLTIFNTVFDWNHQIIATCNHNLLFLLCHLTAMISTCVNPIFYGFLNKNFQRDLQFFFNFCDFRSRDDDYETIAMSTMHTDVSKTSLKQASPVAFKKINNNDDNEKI

Cc1nc(C)c2c(n1)sc1c(NCc3ccc(C(C)(C)O)cc3)nccc12 [22g] gave an inhibition at 10 µM (Estrogen ERα) of -8%, an inhibition at 10 µM (Neuropeptide Y Y1) of -1% and an EC50 (human M2) of 6.2 µM. For the same compound, the “human M2 %Ach Max” value (human M2) was “[46] %Ach Max”, the inhibition at 10 µM (Histamine H2) was -17% and the inhibition at 10 µM (Dopamine D1) was 21%. The IC50 (CYP 2C9) was 17 µM, the “% inh at 10 μM” value [1] was -1% and the CLint scaled at 1 µM ([2]; pH 7.4, human liver microsomes) was 26 mL/min/kg. The “CLhep, human” value ([2]; predicted hepatic clearance from microsomal CLint) was 12 mL/min/kg, the inhibition at 10 µM (Cannabinoid CB1) was -4% and the Papp A→B [3] was 47 ×10⁻⁶ cm/s. For the same compound, the Papp B→A [3] was 68 ×10⁻⁶ cm/s, the inhibition at 10 µM (Bradykinin B2) was -1% and the inhibition at 10 µM (Adenosine A1) was 6%. The inhibition at 10 µM (Muscarinic M1) was 0%, the inhibition at 10 µM (Opiate μ (OP3, MOP)) was 7% and the inhibition at 10 µM (Neuropeptide Y Y2) was 12%. For the same compound, the inhibition at 10 µM (Opiate κ (OP2, KOP)) was 4%, the inhibition at 10 µM (Opiate δ1 (OP1, DOP)) was -2% and the “% inh at 10 μM” value [4] was -2%. The inhibition at 10 µM (Dopamine D2S) was -4%, the inhibition at 10 µM [5] was 16% and the inhibition at 10 µM (Adrenergic β2) was -5%. It also gave an inhibition at 10 µM [6] of 7%, an inhibition at 10 µM [7] of -20% and an inhibition at 10 µM (Adrenergic α1B) of 7%. It also gave an inhibition at 10 µM (hERG potassium channel) of 16%.
